Experimental data reported in US9834548B2, “Pyridazine compounds as JAK inhibitors” (Portola Pharmaceuticals, Inc., priority 2014, dated 2017).

Experiments:
Assay type in all cases: biochemical
[1] = target: JAK3 (Homo sapiens (Human), UniProt P52333); assay: Purified kinase assay (Z'-LYTE), JAK3; details: Table 1; read-out: JAK3 IC50
Description: (§1) JAK and TYK2 tyrosine phosphorylation activity is measured using the Z′-LYTE™ Technology developed by Invitrogen Corporation (Carlsbad, Calif.). For JAK1, JAK2 and JAK3 the Z′-LYTE™ Kinase Assay Kit-Tyr6 Peptide (part number PV4122) was used. For TYK2 the Z′-LYTE™ Kinase Assay Kit-Tyr6 Peptide (part number PV3192) was used. The Z′-LYTE™ biochemical assay employs a fluorescence resonance energy transfer (FRET) coupled-enzyme format and is based on the differential sensitivity of phosphorylated and non-phosphorylated peptides to proteolytic cleavage. The assay uses a synthetic peptide substrate that is labeled with a donor fluorophore (coumarin) and an acceptor fluorophore (fluorescein) that make up a FRET pair. In the primary reaction (the Kinase Reaction), the kinase transfers the γ-phosphate of ATP to a single tyrosine residue on the substrate, while the presence of a kinase inhibitor in the primary reaction suppresses phosphorylation. In the secondary reaction (the Development Reaction), a site-specific protease (the Development Reagent) is added. The development buffer quenches the Kinase Reaction, while the protease recognizes and cleaves non-phosphorylated Z′-LYTE™ peptide substrate. Cleavage disrupts FRET between the donor and acceptor fluorophores on the non-phosphorylated substrate, while uncleaved, phosphorylated substrate maintains FRET.
(§2) To test the ability of candidate molecules to inhibit JAK tyrosine phosphorylation activity, molecules are reconstituted in 100% DMSO and serially diluted 1:10 in polypropylene v-bottom microtiter plates. The candidate molecules are then diluted 1:25 into kinase buffer and 2.5 μl transferred into duplicate wells of a 384 well low volume black microtiter assay plate (Corning, USA). The final DMSO concentration in the assay is 1%. The kinase reaction contains 2.5 μl of a candidate molecule, 5 μl of catalytic domain recombinant Kinase enzyme+Tyr peptide substrate (Invitrogen, CA) and ATP (Invitrogen, CA). The kinase reaction is allowed to proceed for 1 hour at room temperature. The protease reaction is initiated by the addition of Development Reagent (Invitrogen, CA). After 1 hour incubation at room temperature the fluorescence is measured using a FlexStation plate reader (Molecular Devices, Sunnyvale, Calif.). The reader settings used are as follows: Fluorescence mode, endpoint, top read, excitation 400 nm, emission 445 nm and 520 nm, Auto Cutoff 435 nm and 515 nm, PMT sensitivity high, 6 reads per well Inhibition of JAK activity is calculated as the percent phosphorylation of substrate in the presence of inhibitor compared to the percent phosphorylation of substrate in the absence of inhibitor. IC50's were derived using Xlfit 4.3 (IDBS, UK), 4 parameter logistic model 205: Y=(A+((B−A)/(1+((C/x)^D)))).

[2] = target: JAK2 (Homo sapiens (Human), UniProt O60674); assay: Purified kinase assay (Z'-LYTE), JAK2; details: Table 1; read-out: JAK2 IC50
JAK2, sequence (O60674 849-1124): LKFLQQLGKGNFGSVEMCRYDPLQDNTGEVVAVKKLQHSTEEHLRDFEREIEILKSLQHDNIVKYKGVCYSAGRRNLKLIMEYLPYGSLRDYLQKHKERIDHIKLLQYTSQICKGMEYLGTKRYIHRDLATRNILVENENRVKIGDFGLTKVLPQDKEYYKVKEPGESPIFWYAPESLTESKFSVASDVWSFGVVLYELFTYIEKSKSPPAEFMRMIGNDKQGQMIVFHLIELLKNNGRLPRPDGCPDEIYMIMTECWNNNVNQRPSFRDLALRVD
Description: as §1, §2

[3] = target: JAK1 (Homo sapiens (Human), UniProt P23458); assay: Purified kinase assay (Z'-LYTE), JAK1; details: Table 1; read-out: JAK1 IC50
JAK1, sequence (P23458 875-1153): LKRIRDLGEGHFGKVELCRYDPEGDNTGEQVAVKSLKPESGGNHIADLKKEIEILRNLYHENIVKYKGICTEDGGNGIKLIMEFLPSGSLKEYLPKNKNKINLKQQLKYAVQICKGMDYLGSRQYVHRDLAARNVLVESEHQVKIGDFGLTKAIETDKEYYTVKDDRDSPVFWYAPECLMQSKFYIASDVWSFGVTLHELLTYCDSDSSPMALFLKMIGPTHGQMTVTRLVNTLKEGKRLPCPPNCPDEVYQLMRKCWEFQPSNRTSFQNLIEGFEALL
Description: as §1, §2

JAK3, sequence (P52333 822-1111): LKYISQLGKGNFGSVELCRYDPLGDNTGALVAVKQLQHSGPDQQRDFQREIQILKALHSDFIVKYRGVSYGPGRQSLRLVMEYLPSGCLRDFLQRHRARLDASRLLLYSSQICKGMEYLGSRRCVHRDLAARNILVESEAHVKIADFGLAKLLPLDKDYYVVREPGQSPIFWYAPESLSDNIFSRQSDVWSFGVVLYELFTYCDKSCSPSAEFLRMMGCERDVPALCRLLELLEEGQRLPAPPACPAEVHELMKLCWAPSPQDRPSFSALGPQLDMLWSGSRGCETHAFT

Row | IC50 [1] [nM] | IC50 [2] [nM] | IC50 [3] [nM] | SMILES
1 | 1 to 10 | 100 to 1000 | > 1000 | CCC(=O)N1CCN(c2ccc(Nc3cc(NCc4cc(F)cc(F)c4)c(C(N)=O)nn3)cc2)CC1 [Compound 31]
2 | 10 to 100 | 100 to 1000 | > 1000 | Cn1ccc(Nc2cc(NCc3cccc(F)c3)c(C(N)=O)nn2)n1 [Compound 67]
3 | 100 to 1000 | > 1000 | > 1000 | CS(=O)(=O)c1ccc(Nc2cc(NCc3cccc(F)c3)c(C(N)=O)nn2)cc1 [Compound 84]
4 | 100 to 1000 | > 1000 | > 1000 | CC(C)CNc1cc(Nc2ccc(N3CCNCC3)cc2)nnc1C(N)=O [Compound 15]
5 | 100 to 1000 | > 1000 | > 1000 | CC(=O)N1CCN(c2ccc(Nc3cc(NCc4cccc(-c5ccccn5)c4)c(C(N)=O)nn3)cc2)CC1 [Compound 71]
6 | 1 to 10 | 10 to 100 | 100 to 1000 | CCn1cc(Nc2cc(NCc3cccc4ccsc34)c(C(N)=O)nn2)cn1 [Compound 122]
7 | 1 to 10 | 100 to 1000 | > 1000 | NC(=O)c1nnc(Nc2ccc(N3CCS(=O)(=O)CC3)cc2)cc1NCc1cccc(F)c1 [Compound 94]
8 | 10 to 100 | 100 to 1000 | > 1000 | CC(=O)N1CCN(c2ccc(Nc3cc(NCc4cc(-n5ccnc5)ccc4F)c(C(N)=O)nn3)cc2)CC1 [Compound 103]
9 | 10 to 100 | 100 to 1000 | > 1000 | CCn1cc(Nc2cc(NCc3cccc(F)c3)c(C(N)=O)nn2)cn1 [Compound 123]
10 | 1 to 10 | 100 to 1000 | > 1000 | NC(=O)c1nnc(Nc2cnn(CC3CCOCC3)c2)cc1NCc1cccc(F)c1F [Compound 124]
11 | 1 to 10 | 100 to 1000 | > 1000 | CN(C)C(=O)N1CCC(Cn2cc(Nc3cc(NCc4cccc(F)c4F)c(C(N)=O)nn3)cn2)CC1 [Compound 133]
12 | 10 to 100 | > 1000 | > 1000 | CS(=O)(=O)Cc1cccc(Nc2cc(NCc3cccc(F)c3)c(C(N)=O)nn2)c1 [Compound 91]
13 | 1 to 10 | 100 to 1000 | 100 to 1000 | CCC(=O)N1CCC(Cn2cc(Nc3cc(NCc4cccc(F)c4F)c(C(N)=O)nn3)cn2)CC1 [Compound 129]
14 | 10 to 100 | 100 to 1000 | 100 to 1000 | CC(=O)N1CCN(c2ccc(Nc3cc(NCc4cccc(Cl)c4)c(C(N)=O)nn3)cc2)CC1 [Compound 46]
15 | 1 to 10 | 100 to 1000 | 100 to 1000 | NC(=O)c1nnc(Nc2ccc(C(=O)N3CCCC3)cc2)cc1NCc1cc(F)cc(F)c1 [Compound 82]
16 | 10 to 100 | 100 to 1000 | 100 to 1000 | NC(=O)c1nnc(Nc2cnn(CC3CC3)c2)cc1NCc1cccc(F)c1F [Compound 118]
17 | 10 to 100 | 100 to 1000 | > 1000 | COc1cc(Nc2cc(NCc3cccc(F)c3)c(C(N)=O)nn2)ccc1C(=O)N1CCCC1 [Compound 53]
18 | 10 to 100 | 100 to 1000 | > 1000 | NC(=O)c1nnc(Nc2ccc3c(c2)CS(=O)(=O)C3)cc1NCc1cccc(F)c1 [Compound 107]
19 | 1 to 10 | 10 to 100 | > 1000 | CCC(=O)N1CCN(c2ccc(Nc3cc(NCc4cc(F)ccc4F)c(C(N)=O)nn3)cc2)CC1 [Compound 32]
20 | 10 to 100 | 100 to 1000 | > 1000 | CCC(=O)N1CCN(c2ccc(Nc3cc(NCc4cccc(F)c4)c(C(N)=O)nn3)cc2)CC1 [Compound 30]
21 | 100 to 1000 | > 1000 | > 1000 | CC(=O)N1CCN(c2ccc(Nc3cc(NCc4cccnc4)c(C(N)=O)nn3)cc2)CC1 [Compound 79]
22 | 10 to 100 | 10 to 100 | 100 to 1000 | NC(=O)c1nnc(Nc2cnn(CC3CC3)c2)cc1NCc1cccc2ccsc12 [Compound 117]
23 | 10 to 100 | > 1000 | > 1000 | NC(=O)c1nnc(Nc2ccc(N3CCNCC3)cc2)cc1NCc1cccs1 [Compound 22]
